Results taken from US8618147B2, “Modified macrophage migration inhibitory factor inhibitors” (The Feinstein Institute for Medical Research, priority 2006, dated 2013).
Entries after “also recorded” stand apart in the source; their conditions may differ.

How the values were obtained:
[1] = versus 40% control; cited from earlier work
[2] = target: MIF (Homo sapiens (Human), UniProt P14174); assay: MIF dopachrome tautomerase assay; assay type: biochemical; settings: (S)-isomer relative to (R)-isomer
Procedure: MIF tautomerase activity was measured by UV-Visible recording spectrophotometry (SHIMADZU, UV1600U). A fresh stock solution of L-dopachrome methyl ester was prepared at 2.4 mM through oxidation of L-3,4-dihydroxyphenylalanine methyl ester with sodium periodate. 1 μL of MIF solution (800-900 ng/mL) and 1 μL of a DMSO solution with various concentrations of the enzymatic inhibitor were added into a plastic cuvette (10 mm, 1.5 mL) containing 0.7 mL assay buffer (50 mM potassium phosphate, pH 7.2). Then L-dopachrome methyl ester solution (0.3 mL) was added to the assay buffer mixture. Activity was determined at room temperature and the spectrometric measurements were made at λ=475 nm for 20 seconds by monitoring the rate of decolorization of L-dopachrome methyl ester in comparison to a standard solution.

[3] = test system: leukocyte recruitment; assay: Air pouch carrageenan model of acute inflammation, leukocyte recruitment; assay type: in vivo, Swiss Webster male mice; settings: 40 mg/kg single i.p., 15 min before 1% carrageenan into air pouch, 5 hr after carrageenan
Procedure: Air pouches were made according to standard procedures (Garcia-Ramallo et al., 2002) on Swiss Webster male mice (25-30 g) by injecting sterile air s.c. on day 0 (6 ml) and day 3 (3 ml). […] After 15 min, the animals were challenged by injecting 1 ml 1% carrageenan (in PBS) into the air pouch cavity. Five hr after carrageenan injection the animals were sacrificed, the pouches washed with PBS, exudate collected, and the total number of infiltrating cells quantitated.

[4] = test system: rheumatoid arthritis fibroblast-like synoviocytes (RA-FLS); assay: Cell invasion through Matrigel Invasion Chambers; assay type: cell-based; settings: 100 nM ISO-63 or 25 μM ISO-1, one day treatment, 24 hours incubation
Procedure: Invasion was assayed by measuring cell invasion through Matrigel Invasion Chambers (Becton Dickinson, Mass.). […] 500 μl of whole medium containing 10% FBS and 10% human serum and was added to the bottom chamber. After 24 hours of incubation at 37° C., cells on the upper surface of the filter were wiped off with a Q-tip and the filter was fixed in 4% formaldehyde/PBS. After staining with crystal violet, migrated cells were counted using an inverted microscope.

MIF, sequence (P14174 2-115): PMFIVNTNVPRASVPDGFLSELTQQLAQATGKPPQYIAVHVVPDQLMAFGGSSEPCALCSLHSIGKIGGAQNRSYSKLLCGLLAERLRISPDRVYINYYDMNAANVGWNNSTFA

## COC(=O)C[C@@H]1CC(c2ccc(O)cc2)=NO1 (racemic) [ISO-1, (S,R)-3-(4-hydroxyphenyl)-4,5-dihydro-5-isoxazole acetic acid methyl ester, reference compound]
[1]
  protection in sepsis model: 80%

## COC(=O)C[C@@H]1CC(c2ccc(O)cc2)=NO1 [(S)-ISO-1]
[2]
  less active than the (R)-isomer: 50%

## CC(C)C(OC(=O)CC1CC(c2ccc(O)c(F)c2)=NO1)C(C)C (stereo not shown) [ISO-63]
[3]
  leukocyte recruitment (total number of infiltrating cells): inhibits leukocyte recruitment; also recorded: caused a significant reduction in leukocyte recruitment
[4]
  invasion of RA-FLS into Matrigel (migrated cells): inhibits the invasion; also recorded: reduced cell invasion to a much greater extent than the ISO-1 treatment
